Reference: ChEMBL document CHEMBL2176875, “Ago-allosteric modulators of human glucagon-like peptide 2 receptor” (Bioorg Med Chem Lett, 2012)
Each block holds one compound with its values, some of them ahead of it. Calls of active or inactive are those of the source. The rule behind the calls is not given here.

Key:
[1] = biological target: T1, Glucagon-like peptide 2 receptor (Homo sapiens) (UniProt O95838); assay: Positive ago-allosteric modulation of GLP2R overexpressed in human SE302 cells assessed as placental alkaline phosphatase activation at 50 uM measured on day 3 by Alamar Blue assay relative to 10 pM GLP2; assay type: cell-based
T1 sequence (whole entry): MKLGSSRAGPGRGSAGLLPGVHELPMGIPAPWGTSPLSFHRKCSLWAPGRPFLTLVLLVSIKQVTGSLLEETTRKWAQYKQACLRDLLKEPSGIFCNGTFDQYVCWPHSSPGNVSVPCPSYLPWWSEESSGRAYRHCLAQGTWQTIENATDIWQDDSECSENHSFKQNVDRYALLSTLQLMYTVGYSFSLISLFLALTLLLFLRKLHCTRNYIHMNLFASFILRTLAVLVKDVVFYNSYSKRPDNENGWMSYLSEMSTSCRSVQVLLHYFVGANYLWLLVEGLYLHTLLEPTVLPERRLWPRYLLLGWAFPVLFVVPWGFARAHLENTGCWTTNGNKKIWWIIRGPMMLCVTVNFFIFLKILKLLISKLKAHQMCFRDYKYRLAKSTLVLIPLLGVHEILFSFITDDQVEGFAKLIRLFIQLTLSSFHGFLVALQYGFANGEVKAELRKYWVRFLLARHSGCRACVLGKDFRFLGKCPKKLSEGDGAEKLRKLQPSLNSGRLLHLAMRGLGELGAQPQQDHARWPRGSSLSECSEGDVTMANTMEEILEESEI

[2] = biological target: T1, Glucagon-like peptide 2 receptor (Homo sapiens); assay: (§1) Positive ago-allosteric modulation of GLP2R overexpressed in human SE302 cells assessed as placental alkaline phosphatase activation measured on day 3 by Alamar Blue assay; assay type: cell-based
[3] = biological target: T1, Glucagon-like peptide 2 receptor (Homo sapiens); assay: Positive ago-allosteric modulation of GLP2R overexpressed in human SE302 cells assessed as placental alkaline phosphatase activation at 25 uM measured on day 3 by Alamar Blue assay relative to 100 pM GLP2; assay type: cell-based
[4] = biological target: T1, Glucagon-like peptide 2 receptor (Homo sapiens); assay: Positive ago-allosteric modulation of GLP2R overexpressed in human SE302 cells assessed as placental alkaline phosphatase activation at 12.5 uM measured on day 3 by Alamar Blue assay relative to 100 pM GLP2; assay type: cell-based
[5] = biological target: T1, Glucagon-like peptide 2 receptor (Homo sapiens); assay: Positive ago-allosteric modulation of GLP2R overexpressed in human SE302 cells assessed as placental alkaline phosphatase activation at 25 uM measured on day 3 by Alamar Blue assay relative to 10 pM GLP2; assay type: cell-based
[6] = biological target: T1, Glucagon-like peptide 2 receptor (Homo sapiens); assay: Positive ago-allosteric modulation of GLP2R overexpressed in human SE302 cells assessed as placental alkaline phosphatase activation measured on day 3 by Alamar Blue assay relative to GLP2; assay type: cell-based
[7] = biological target: T2, Glucagon-like peptide 2 receptor (Homo sapiens, UniProt O95838); assay: as §1; assay type: cell-based
T2 sequence (O95838 whole entry): T1 sequence (whole entry)

[8] = biological target: T1, Glucagon-like peptide 2 receptor (Homo sapiens); assay: Positive ago-allosteric modulation of GLP2R overexpressed in human SE302 cells assessed as placental alkaline phosphatase activation at 6.3 uM measured on day 3 by Alamar Blue assay relative to 100 pM GLP2; assay type: cell-based
[9] = biological target: T1, Glucagon-like peptide 2 receptor (Homo sapiens); assay: Positive ago-allosteric modulation of GLP2R overexpressed in human SE302 cells assessed as placental alkaline phosphatase activation at 6.3 uM measured on day 3 by Alamar Blue assay relative to 10 pM GLP2; assay type: cell-based
[10] = biological target: T1, Glucagon-like peptide 2 receptor (Homo sapiens); assay: Positive ago-allosteric modulation of GLP2R overexpressed in human SE302 cells assessed as placental alkaline phosphatase activation at 50 uM measured on day 3 by Alamar Blue assay relative to 100 pM GLP2; assay type: cell-based
[11] = biological target: T1, Glucagon-like peptide 2 receptor (Homo sapiens); assay: Positive ago-allosteric modulation of GLP2R overexpressed in human SE302 cells assessed as increase in GLP2 (11 to 33)-induced placental alkaline phosphatase activation at 10 uM measured on day 3 by Alamar Blue assay relative to GLP2; assay type: cell-based
[12] = biological target: T1, Glucagon-like peptide 2 receptor (Homo sapiens); assay: Positive ago-allosteric modulation of GLP2R overexpressed in human SE302 cells assessed as GLP2 (3 to 33)-induced placental alkaline phosphatase activation at 10 uM measured on day 3 by Alamar Blue assay relative to GLP2; assay type: cell-based
[13] = biological target: T1, Glucagon-like peptide 2 receptor (Homo sapiens); assay: Positive ago-allosteric modulation of GLP2R overexpressed in human SE302 cells assessed as reduction of GLP2-induced cAMP level at 3 to 10 uM after 30 mins; assay type: functional, cell-based
[14] = biological target: T1, Glucagon-like peptide 2 receptor (Homo sapiens); assay: Displacement of [125I]-Bolton Hunter labeled GLP2 from GLP2R overexpressed in human SE302 cell membranes at 10 uM after 2 hrs by gamma counter
[15] = biological target: T1, Glucagon-like peptide 2 receptor (Homo sapiens); assay: Positive ago-allosteric modulation of GLP2R overexpressed in human SE302 cells assessed as increase in (Z)-methyl 2-(2-(2,5-dichlorothiophen-3-yl)-2-(hydroxyimino)ethylthio)benzoate-induced placental alkaline phosphatase activation measured on day 3 by Alamar Blue assay; assay type: cell-based
[16] = biological target: T1, Glucagon-like peptide 2 receptor (Homo sapiens); assay: Displacement of [125I]-Bolton Hunter labeled GLP2 from GLP2R overexpressed in human SE302 cell membranes at 1 uM after 2 hrs by gamma counter
[17] = biological target: T1, Glucagon-like peptide 2 receptor (Homo sapiens); assay: Displacement of [125I]-Bolton Hunter labeled GLP2 from GLP-2R overexpressed in human SE302 cell membranes up to 100 uM after 2 hrs by gamma counter

- %max [1]: 217%
Compound: COc1ccc(SC/C(=N\O)c2cc(Cl)sc2Cl)cc1

- Activity [2]: inactive
Compound: Cn1nc(C(C)(C)C)cc1/C(CSc1ccccc1)=N/O

- %max [3]: 73%
Compound: O/N=C(\CSc1cccc(F)c1)c1cc(Cl)sc1Cl

- %max [3]: 14%
Compound: Cn1nc(-c2ccccc2)cc1/C(CSc1ccccc1)=N/O

- Activity [2]: inactive
- %max [1]: 78%
Compound: COc1ccccc1SC/C(=N\O)c1cc(Cl)sc1Cl

- %max [1]: 8%
Compound: N#Cc1cccc(/C(CSc2ccccc2)=N/O)c1

- %max [4]: 58%
Compound: Cc1ccc(SC/C(=N\O)c2cc(Cl)sc2Cl)c(C)c1

- %max [3]: 40%
Compound: O/N=C(\CSc1cccs1)c1cc(Cl)sc1Cl

- %max [5]: 54%
Compound: O/N=C(\CSc1ccccc1)c1cccc(F)c1

- %max [3]: 10%
Compound: Cc1cccc(C)c1SC/C(=N\O)c1cc(Cl)sc1Cl

- %max [3]: 87%
Compound: CC(C)n1nc(C(F)(F)F)cc1/C(CSc1ccccc1)=N/O

- %max [6]: 59%
Compound: H-DGSFSDEMNTILDNLAARDFINWLIQTKITD-OH [listing 1 of 2 here]

- %max [3]: 23%
Compound: O/N=C(\CSc1cccc2ccccc12)c1cc(Cl)sc1Cl

- %max [3]: 54%
Compound: Cc1cccc(SC/C(=N\O)c2cc(Cl)sc2Cl)c1C

- %max [4]: 43%
Compound: COc1c(N(C)C)cc(/C(CSc2ccccc2)=N/O)cc1C(C)(C)C

- %max [4]: 40%
Compound: CC(C)(C)c1ccccc1SC/C(=N\O)c1cc(Cl)sc1Cl

- %max [3]: 143%
Compound: O/N=C(\CSc1ccncc1C(F)(F)F)c1cc(Cl)sc1Cl

- EC50 [7]: 31 nM
Compound: H-DGSFSDEMNTILDNLAARDFINWLIQTKITD-OH [listing 2 of 2 here]

- %max [3]: 31%
Compound: COc1cccc(SC/C(=N\O)c2cc(Cl)sc2Cl)c1C

- Activity [2]: inactive
Compound: COc1c(C(=O)O)cc(/C(CSc2ccccc2)=N/O)cc1C(C)(C)C

- Activity [2]: inactive
Compound: O/N=C(\CSc1ccccn1)c1cc(Cl)sc1Cl

- Activity [2]: inactive
Compound: O/N=C(\CSCc1ccccc1)c1cc(Cl)sc1Cl

- %max [5]: 46%
Compound: O/N=C(\CSc1ccccc1)c1cccc(Cl)c1

- %max [5]: 95%
Compound: O/N=C(\CSc1ccccc1)c1cccc(C(F)(F)F)c1

- %max [4]: 84%
Compound: O/N=C(\CSc1ccccc1-c1ccccc1)c1cc(Cl)sc1Cl

- %max [3]: 53%
Compound: O/N=C(\CSc1cccc(Cl)c1)c1cc(Cl)sc1Cl

- %max [3]: 4%
Compound: CC(C)(C)OC(=O)c1cc(/C(CSc2ccccc2)=N/O)cc(C(C)(C)C)c1O

- %max [3]: 127%
Compound: O/N=C(\CSc1ccccc1)c1cc(C(F)(F)F)nn1C1CCCC1

- %max [3]: 8%
Compound: COc1cccc(/C(CSc2ccccc2)=N/O)c1

- %max [4]: 110%
Compound: CCC(C)n1nc(C(F)(F)F)cc1/C(CSc1ccccc1)=N/O (stereo not drawn)

- %max [8]: 83%
- %max [9]: 610%
Compound: O/N=C(\CSc1ccccc1C(F)(F)F)c1cc(C(F)(F)F)nn1C1CCCC1

- %max [5]: 945%
- %max [3]: 134%
Compound: O/N=C(\CSc1ccc(F)cc1)c1cc(Cl)sc1Cl

- %max [10]: 44%
Compound: Cc1cnccc1SC/C(=N\O)c1cc(Cl)sc1Cl

- %max [3]: 71%
Compound: CCCn1nc(C(F)(F)F)cc1/C(CSc1ccccc1)=N/O

- %max [5]: 144%
- Activity [2]: inactive
Compound: COc1cccc(SC/C(=N\O)c2cc(Cl)sc2Cl)c1

- %max [3]: 14%
Compound: CC(C)Oc1cccc(/C(CSc2ccccc2)=N/O)c1

- %max [8]: 97%
- %max [9]: 714%
Compound: COc1c(Br)cc(/C(CSc2ccccc2C(F)(F)F)=N/O)cc1C(C)(C)C

- %max [4]: 31%
Compound: CCC(CC)n1nc(C(F)(F)F)cc1/C(CSc1ccccc1)=N/O

- %max [4]: 59%
Compound: O/N=C(\CSc1ccccc1)c1cc(C(F)(F)F)nn1Cc1ccccc1

- %max [4]: 58%
Compound: O/N=C(\CSc1ccccc1C(F)(F)F)c1cc(Cl)sc1Cl

- %max [5]: 517%
- %max [3]: 29%
Compound: O/N=C(\CSc1ccccc1)c1cc(C(F)(F)F)cc(C(F)(F)F)c1

- %max [3]: 60%
Compound: O/N=C(\CSc1ccccc1Cl)c1cc(Cl)sc1Cl

- %max [3]: 99%
Compound: O/N=C(\CSc1ccccc1)c1cc(C(F)(F)F)nn1C1CCC1

- %max [3]: 124%
Compound: Cc1cc(F)ccc1SC/C(=N\O)c1cc(Cl)sc1Cl

- %max [3]: 30%
Compound: Cc1cccc(SC/C(=N\O)c2cc(Cl)sc2Cl)c1

- %max [3]: 16%
Compound: O/N=C(\CSc1ccc(C(F)(F)F)cc1)c1cc(Cl)sc1Cl

- %max [10]: 27%
Compound: O/N=C(\CSc1cccnc1)c1cc(Cl)sc1Cl

- %max [3]: 90%
Compound: Cc1ccccc1SC/C(=N\O)c1cc(Cl)sc1Cl

- %max [5]: 284%
- %max [3]: 39%
Compound: COC(=O)c1ccccc1SC/C(=N\O)c1cc(Cl)sc1Cl

- Activity [2]: inactive
Compound: O=C(O)c1ccccc1SC/C(=N\O)c1cc(Cl)sc1Cl

- %max [4]: 43%
Compound: COc1c(Br)cc(/C(CSc2ccccc2)=N/O)cc1C(C)(C)C

- Activity [2]: inactive
- %max [3]: 13%
Compound: Cn1nc(C(F)(F)F)cc1/C(CSc1ccccc1)=N/O

- %max [5]: 244%
- %max [3]: 18%
Compound: CC(C)(C)c1cccc(/C(CSc2ccccc2)=N/O)c1

- %max [4]: 40%
Compound: Cc1ccc(C)c(SC/C(=N\O)c2cc(Cl)sc2Cl)c1

- Activity [11]: Active
- Activity [12]: Active
- %max [3]: 31%
Compound: CC(C)(C)c1cc(/C(CSc2ccccc2)=N/O)cc(C(C)(C)C)c1

- %max [5]: 42%
Compound: O/N=C(\CSc1ccccc1)c1cccc(Br)c1

- Activity [2]: inactive
Compound: O/N=C(\CSc1ccccc1)c1cccc(O)c1

- Activity [2]: inactive
Compound: Cn1nc(C2CC2)cc1/C(CSc1ccccc1)=N/O

- %max [5]: 293%
- %max [3]: 17%
Compound: O/N=C(\CSc1ccc(Cl)cc1)c1cc(Cl)sc1Cl

- %max [4]: 12%
Compound: COc1c(C(=O)OC(C)(C)C)cc(/C(CSc2ccccc2)=N/O)cc1C(C)(C)C

- Activity [13]: Dose-dependent effect
- EC50 [7]: 1300 nM
- Activity [14]: 100%
- Activity [15]: Dose-dependent effect
- Activity [16]: 88%
- %max [6]: 11%
Compound: H-NTILDNLAARDFINWLIQTKITD-OH

- Activity [2]: inactive
Compound: Cc1cc(/C(CSc2ccccc2)=N/O)n(C)n1

- Activity [2]: inactive
Compound: CC(C)(C)SC/C(=N\O)c1cc(Cl)sc1Cl

- %max [3]: 9%
Compound: CCCOc1cccc(/C(CSc2ccccc2)=N/O)c1

- %max [3]: 80%
Compound: O/N=C(\CSc1ccccc1F)c1cc(Cl)sc1Cl

- Activity [2]: inactive
Compound: O/N=C(\CSC1CCCCC1)c1cc(Cl)sc1Cl

- %max [3]: 59%
Compound: CCc1cnccc1SC/C(=N\O)c1cc(Cl)sc1Cl

- %max [3]: 63%
Compound: CCc1ccccc1SC/C(=N\O)c1cc(Cl)sc1Cl

- %max [4]: 102%
Compound: O/N=C(\CSc1ccncc1-c1ccccc1)c1cc(Cl)sc1Cl

- Activity [2]: inactive
Compound: O/N=C(\CSCCCc1ccccc1)c1cc(Cl)sc1Cl

- %max [10]: 55%
- Activity [17]: inactive
Compound: O/N=C(\CSc1ccncc1)c1cc(Cl)sc1Cl

- %max [10]: 3%
- %max [1]: 65%
Compound: Cc1ccc(SC/C(=N\O)c2cc(Cl)sc2Cl)cc1

- Activity [2]: inactive
Compound: CCSC/C(=N\O)c1cc(Cl)sc1Cl

- %max [1]: 4%
Compound: O/N=C(\CSc1ccccc1)c1ccccc1
